Laboratory results reported in patent US12168664B2, “Triazolopyrimidines, their preparation and use” (THE TRUSTEES OF COLUMBIA UNIVERSITY IN THE CITY OF NEW YORK, priority 2018, dated 2024).
“And” between values parts separate entries of the source, which are not always exact repeats. Equal values may be shown once.

Legend:
RBP4-TTR interaction = RBP4-TTR interaction (Homo sapiens (Human), UniProt P02753); experiment: HTRF (TR-FRET) assay for antagonists of retinol-induced RBP4-TTR interaction; assay type: biochemical; conditions: in the presence of 1 μM retinol
Text: TR-FRET Assay for Retinol-Induced RBP4-TTR Interaction
Binding of a desired RBP4 antagonist displaces retinol and induces hindrance for RBP4-TTR interaction resulting in the decreased FRET signal (FIG. 7). Bacterially expressed MBP-RBP4 and untagged TTR were used in this assay. For the use in the TR-FRET assay, the maltose binding protein (MBP)-tagged human RBP4 fragment (amino acids 19-201) was expressed in the Gold(DE3)pLysS E. coli strain (Stratagene) using the pMAL-c4x vector. Following cell lysis, recombinant RBP4 was purified from the soluble fraction using the ACTA FPLC system (GE Healthcare) equipped with the 5-ml the MBP Trap HP column. Human untagged TTR was purchased from Calbiochem. Untagged TTR was labeled directly with Eu^3+ Cryptate-NHS using the HTRF Cryptate Labeling kit from CisBio following the manufacturer's recommendations. HTRF assay was performed in white low volume 384 well plates (Greiner-Bio) in a final assay volume of 16 μl per well. […] Titration of test compounds in this assay was conducted in the presence of 1 μM retinol. […] TR-FRET signal was measured in the SpectraMax M5e Multimode Plate Reader (Molecular Device). […] The TR-FRET signal was expressed as the ratio of fluorescence intensity: Flu665/Flu620×10,000.
The compounds listed below were tested in two in vitro assays, RBP4 binding (SPA) and retinol-dependent RBP4-TTR interaction (HTRF) (Table 1).

A2E = A2E (bisretinoid) accumulation in eyes of Abca4−/− mice, HPLC of eyecups; assay type: in vivo; conditions: 35 mg/kg daily oral in chow, 8 weeks, p=0.0007
Description: Effect of 7a on accumulation of N-retinylidene-N-retinylethanolamine (A2E) in Eyes of the Abca4^−/− Mice
Animal protocols were approved by the Institutional Animal Care and Use Committee of Columbia University and complied with guidelines set forth by The Association for Research in Vision and Ophthalmology. […] Abca4^−/− (knockout) and C57BL/6J (wild-type control) mice were raised under 12 h on-off cyclic lighting with an in-cage illuminance of 30-50 lux. For long-term oral dosing 7a was formulated into Purina 5035 rodent chow at Research Diets, Inc. (New Brunswick, NJ) to ensure consistent 35 mg/kg daily oral dosing. Animals were administered the AKR-XI-85-containing chow for 8 weeks. […] Serum RBP4 was measured using the RBP4 (mouse/rat) dual ELISA kit (AdipoGen) following the manufacturer's instructions.
After the completion of dosing, animals were euthanized and posterior eyecups consisting of sclera, choroid and RPE were prepared from enucleated eyes according to the standard techniques. […] A previously established HPLC method (Journal of Biological Chemistry, 275, 29354-29360) was utilized for quantifying A2E in mouse eyecups. Quantitation of A2E was conducted by manually integrating the A2E peak (approximately 12-min elution time) which was identified by the co-elution with the synthetic A2E standard and by characteristic absorbance spectrum. […]

IC50 (RBP4-TTR interaction): 209 nM and 194 nM and 240 nM
Compound: O=C(c1nc2ncccn2n1)N1C[C@H]2C[C@@H](c3ccccc3C(F)(F)F)C[C@H]2C1 [Compound 7a]
A2E reduction vs control chow-treated Abca4−/− animals (A2E): 69%
